Experimental data published in ChEMBL document CHEMBL3991601, “The target landscape of clinical kinase drugs” (Science, 2017).
Active and inactive are the calls of the source. Rule as the data show it, for most assays here: actives have a measured Kd and inactives only a lower limit.

Legend:
[1] = target: T1, DNA replication licensing factor MCM4 (Homo sapiens, UniProt P33991)
T1 sequence (P33991 whole entry): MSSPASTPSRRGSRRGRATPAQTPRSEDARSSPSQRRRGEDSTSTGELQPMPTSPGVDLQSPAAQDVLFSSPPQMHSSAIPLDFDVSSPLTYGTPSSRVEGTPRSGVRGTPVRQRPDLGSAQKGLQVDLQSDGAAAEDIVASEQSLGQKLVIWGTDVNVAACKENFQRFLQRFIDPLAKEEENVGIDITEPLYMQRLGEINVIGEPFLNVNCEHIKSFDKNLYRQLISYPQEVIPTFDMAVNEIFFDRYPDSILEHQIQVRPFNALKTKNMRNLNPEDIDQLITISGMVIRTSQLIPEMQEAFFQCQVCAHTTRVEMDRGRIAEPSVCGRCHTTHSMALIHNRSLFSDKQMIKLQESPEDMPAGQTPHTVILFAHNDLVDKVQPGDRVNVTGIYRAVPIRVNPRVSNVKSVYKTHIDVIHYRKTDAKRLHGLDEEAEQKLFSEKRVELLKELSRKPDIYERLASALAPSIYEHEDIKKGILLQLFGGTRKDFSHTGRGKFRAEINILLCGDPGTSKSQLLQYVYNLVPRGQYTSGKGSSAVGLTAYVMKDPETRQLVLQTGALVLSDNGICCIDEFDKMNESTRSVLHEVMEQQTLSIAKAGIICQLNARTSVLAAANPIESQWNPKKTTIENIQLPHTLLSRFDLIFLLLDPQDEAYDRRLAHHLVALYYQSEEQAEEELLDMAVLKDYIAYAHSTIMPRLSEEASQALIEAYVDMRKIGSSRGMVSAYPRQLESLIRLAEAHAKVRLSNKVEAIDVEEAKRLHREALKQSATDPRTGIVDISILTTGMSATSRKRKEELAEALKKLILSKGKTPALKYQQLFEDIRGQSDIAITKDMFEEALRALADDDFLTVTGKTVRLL

[2] = target: T2, Non-receptor tyrosine-protein kinase TNK1 (Homo sapiens, UniProt Q13470)
T2 sequence (Q13470 whole entry): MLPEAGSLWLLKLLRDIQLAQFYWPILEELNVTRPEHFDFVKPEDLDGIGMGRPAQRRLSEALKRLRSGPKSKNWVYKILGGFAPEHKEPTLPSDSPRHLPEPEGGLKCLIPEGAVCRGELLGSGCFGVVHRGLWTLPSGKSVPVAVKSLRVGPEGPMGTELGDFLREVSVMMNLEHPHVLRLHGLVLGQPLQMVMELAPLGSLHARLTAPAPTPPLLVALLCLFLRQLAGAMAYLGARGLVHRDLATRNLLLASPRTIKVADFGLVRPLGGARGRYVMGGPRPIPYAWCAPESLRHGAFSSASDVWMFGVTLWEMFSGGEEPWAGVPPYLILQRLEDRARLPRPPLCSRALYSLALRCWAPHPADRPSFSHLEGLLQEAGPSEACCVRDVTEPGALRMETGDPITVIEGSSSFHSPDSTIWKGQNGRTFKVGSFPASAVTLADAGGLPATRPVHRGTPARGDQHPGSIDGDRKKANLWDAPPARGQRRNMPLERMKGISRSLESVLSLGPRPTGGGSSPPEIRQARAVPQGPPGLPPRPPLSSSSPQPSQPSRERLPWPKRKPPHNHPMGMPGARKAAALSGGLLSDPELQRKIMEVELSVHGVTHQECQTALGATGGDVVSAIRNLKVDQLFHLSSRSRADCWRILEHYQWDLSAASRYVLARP

[3] = target: TGF-beta receptor type-2 (Homo sapiens, UniProt P37173)
TGF-beta receptor type-2, sequence (P37173 whole entry): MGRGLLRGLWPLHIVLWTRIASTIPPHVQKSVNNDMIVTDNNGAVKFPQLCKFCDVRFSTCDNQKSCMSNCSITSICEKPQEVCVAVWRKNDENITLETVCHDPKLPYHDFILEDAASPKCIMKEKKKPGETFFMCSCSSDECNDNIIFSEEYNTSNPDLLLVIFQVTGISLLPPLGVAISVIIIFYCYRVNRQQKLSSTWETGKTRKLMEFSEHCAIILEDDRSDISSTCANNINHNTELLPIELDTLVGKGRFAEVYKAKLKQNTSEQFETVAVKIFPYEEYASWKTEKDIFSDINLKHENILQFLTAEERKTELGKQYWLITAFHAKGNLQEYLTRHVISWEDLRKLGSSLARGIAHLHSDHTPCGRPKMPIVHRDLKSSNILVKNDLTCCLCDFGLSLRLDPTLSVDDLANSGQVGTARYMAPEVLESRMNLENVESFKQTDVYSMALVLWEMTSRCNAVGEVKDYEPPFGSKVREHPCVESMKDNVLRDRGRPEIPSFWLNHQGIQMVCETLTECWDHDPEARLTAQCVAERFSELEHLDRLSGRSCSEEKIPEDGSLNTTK

[4] = target: Mitotic checkpoint serine/threonine-protein kinase BUB1 (Homo sapiens, UniProt O43683)
Mitotic checkpoint serine/threonine-protein kinase BUB1, sequence (O43683 whole entry): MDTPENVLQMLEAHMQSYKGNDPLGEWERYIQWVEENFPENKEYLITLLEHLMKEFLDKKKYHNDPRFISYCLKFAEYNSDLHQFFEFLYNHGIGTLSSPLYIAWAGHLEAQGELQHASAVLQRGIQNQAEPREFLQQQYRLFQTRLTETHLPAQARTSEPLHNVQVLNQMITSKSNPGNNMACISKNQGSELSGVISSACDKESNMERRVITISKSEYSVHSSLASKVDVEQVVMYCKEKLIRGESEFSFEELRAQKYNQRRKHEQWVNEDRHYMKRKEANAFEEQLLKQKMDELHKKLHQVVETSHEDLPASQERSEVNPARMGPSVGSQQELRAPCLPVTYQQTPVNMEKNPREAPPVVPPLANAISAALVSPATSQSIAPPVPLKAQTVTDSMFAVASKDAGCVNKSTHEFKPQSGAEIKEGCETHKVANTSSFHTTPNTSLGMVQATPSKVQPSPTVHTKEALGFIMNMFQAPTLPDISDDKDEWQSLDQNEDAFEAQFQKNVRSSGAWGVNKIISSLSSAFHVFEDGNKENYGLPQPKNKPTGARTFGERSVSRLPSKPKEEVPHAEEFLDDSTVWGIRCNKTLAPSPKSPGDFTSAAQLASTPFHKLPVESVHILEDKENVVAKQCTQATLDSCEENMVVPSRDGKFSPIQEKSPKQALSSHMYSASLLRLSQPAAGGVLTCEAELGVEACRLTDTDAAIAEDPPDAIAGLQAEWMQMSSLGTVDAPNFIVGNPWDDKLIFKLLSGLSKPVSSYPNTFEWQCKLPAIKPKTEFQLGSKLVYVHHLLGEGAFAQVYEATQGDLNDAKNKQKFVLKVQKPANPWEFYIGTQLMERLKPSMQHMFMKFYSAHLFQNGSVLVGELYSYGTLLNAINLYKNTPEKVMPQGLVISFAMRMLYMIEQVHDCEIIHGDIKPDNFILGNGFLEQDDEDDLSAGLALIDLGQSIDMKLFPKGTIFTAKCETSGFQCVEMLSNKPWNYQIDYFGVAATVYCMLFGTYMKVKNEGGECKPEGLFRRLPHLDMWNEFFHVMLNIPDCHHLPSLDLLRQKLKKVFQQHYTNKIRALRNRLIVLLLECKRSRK

[5] = target: Calcium/calmodulin-dependent protein kinase kinase 2 (Homo sapiens, UniProt Q96RR4)
Calcium/calmodulin-dependent protein kinase kinase 2, sequence (Q96RR4 whole entry): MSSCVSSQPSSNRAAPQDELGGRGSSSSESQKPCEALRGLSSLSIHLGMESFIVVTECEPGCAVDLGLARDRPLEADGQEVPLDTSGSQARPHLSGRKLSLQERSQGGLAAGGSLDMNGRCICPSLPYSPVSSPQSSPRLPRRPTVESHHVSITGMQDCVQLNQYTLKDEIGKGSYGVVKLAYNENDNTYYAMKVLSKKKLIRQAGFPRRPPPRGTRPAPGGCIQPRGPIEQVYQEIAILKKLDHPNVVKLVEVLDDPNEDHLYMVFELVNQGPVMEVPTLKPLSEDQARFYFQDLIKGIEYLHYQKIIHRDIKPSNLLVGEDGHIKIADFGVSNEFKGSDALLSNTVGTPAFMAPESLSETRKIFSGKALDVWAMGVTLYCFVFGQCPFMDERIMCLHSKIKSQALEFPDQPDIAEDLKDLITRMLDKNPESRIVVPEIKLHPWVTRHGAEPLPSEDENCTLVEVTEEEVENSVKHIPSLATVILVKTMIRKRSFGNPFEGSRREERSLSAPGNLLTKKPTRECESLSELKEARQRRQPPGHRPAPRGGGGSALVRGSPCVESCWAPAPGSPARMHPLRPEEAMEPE

[6] = target: Tyrosine-protein kinase JAK1 (Homo sapiens, UniProt P23458)
Tyrosine-protein kinase JAK1, sequence (P23458 whole entry): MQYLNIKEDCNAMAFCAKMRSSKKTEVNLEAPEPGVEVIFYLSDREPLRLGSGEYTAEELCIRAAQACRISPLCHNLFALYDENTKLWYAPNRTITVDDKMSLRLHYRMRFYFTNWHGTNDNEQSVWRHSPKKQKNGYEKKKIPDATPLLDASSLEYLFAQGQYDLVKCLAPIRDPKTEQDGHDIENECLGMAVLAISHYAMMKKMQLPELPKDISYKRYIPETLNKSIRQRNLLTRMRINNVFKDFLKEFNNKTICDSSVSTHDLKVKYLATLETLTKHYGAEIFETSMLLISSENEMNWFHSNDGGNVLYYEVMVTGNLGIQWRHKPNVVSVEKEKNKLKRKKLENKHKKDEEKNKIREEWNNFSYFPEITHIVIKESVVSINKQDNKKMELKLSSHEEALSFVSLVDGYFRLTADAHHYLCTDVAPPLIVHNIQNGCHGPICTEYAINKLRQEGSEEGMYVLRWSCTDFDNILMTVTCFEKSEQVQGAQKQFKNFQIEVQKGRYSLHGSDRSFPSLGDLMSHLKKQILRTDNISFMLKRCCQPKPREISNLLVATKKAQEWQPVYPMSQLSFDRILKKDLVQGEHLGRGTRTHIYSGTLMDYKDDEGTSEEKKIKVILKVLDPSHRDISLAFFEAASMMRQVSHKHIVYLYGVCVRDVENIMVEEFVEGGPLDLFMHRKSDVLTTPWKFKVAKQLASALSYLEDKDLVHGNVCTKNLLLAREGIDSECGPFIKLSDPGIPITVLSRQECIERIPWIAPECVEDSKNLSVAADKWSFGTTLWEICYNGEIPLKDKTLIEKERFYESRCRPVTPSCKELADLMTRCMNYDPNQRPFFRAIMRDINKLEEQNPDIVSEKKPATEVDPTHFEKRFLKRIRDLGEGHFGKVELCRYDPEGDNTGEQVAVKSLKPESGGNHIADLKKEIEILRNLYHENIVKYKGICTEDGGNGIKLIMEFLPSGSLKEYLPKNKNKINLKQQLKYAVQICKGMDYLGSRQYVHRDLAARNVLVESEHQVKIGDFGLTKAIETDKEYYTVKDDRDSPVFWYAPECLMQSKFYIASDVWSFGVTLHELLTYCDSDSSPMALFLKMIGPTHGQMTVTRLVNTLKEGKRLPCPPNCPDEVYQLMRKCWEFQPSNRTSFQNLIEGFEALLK

[7] = target: T3, Glycogen phosphorylase, liver form (Homo sapiens, UniProt P06737); type: subcellular, K-562, COLO 205, SK-N-BE(2) and MV-4-11, Cell lysate; settings: read-out: Kd apparent
T3 sequence (P06737 whole entry): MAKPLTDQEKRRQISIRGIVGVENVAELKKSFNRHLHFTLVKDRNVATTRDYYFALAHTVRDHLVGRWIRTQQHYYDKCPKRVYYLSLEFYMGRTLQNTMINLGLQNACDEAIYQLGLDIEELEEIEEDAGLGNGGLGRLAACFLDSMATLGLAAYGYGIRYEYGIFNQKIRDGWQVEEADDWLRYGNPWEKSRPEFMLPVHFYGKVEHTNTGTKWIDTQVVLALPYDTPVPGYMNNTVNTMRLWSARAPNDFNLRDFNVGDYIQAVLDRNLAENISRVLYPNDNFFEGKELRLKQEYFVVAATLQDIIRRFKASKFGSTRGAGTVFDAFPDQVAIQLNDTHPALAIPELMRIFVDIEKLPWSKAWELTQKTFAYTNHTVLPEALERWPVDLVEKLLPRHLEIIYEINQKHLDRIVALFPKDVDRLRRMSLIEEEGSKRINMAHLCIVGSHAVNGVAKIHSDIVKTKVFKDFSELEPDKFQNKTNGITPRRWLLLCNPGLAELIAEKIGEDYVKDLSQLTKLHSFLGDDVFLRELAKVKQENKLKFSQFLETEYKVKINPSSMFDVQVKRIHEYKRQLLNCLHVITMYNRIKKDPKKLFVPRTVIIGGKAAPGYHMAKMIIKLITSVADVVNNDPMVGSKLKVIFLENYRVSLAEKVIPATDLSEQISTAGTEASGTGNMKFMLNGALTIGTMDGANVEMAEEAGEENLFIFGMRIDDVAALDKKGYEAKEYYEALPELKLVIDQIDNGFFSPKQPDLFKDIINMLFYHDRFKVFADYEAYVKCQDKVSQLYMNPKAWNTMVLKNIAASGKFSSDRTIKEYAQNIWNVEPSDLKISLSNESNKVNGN
Also: in the data inactive means no Kd found up to 30 µM.

Kd [1] | Kd [2] | Kd [3] | Kd [4] | Kd [5] | Kd [6] | Kd [7] | SMILES
> 30 µM (inactive) | > 30 µM (inactive) | > 30 µM (inactive) | > 30 µM (inactive) | > 30 µM (inactive) | > 30 µM (inactive) | > 30 µM (inactive) | CC(C)(O)CC(=O)NCCn1ccc2ncnc(Nc3ccc(Oc4cccc(C(F)(F)F)c4)c(Cl)c3)c21 [TAK-285]
> 30 µM (inactive) | > 30 µM (inactive) | > 30 µM (inactive) | > 30 µM (inactive) | > 30 µM (inactive) | > 30 µM (inactive) | > 30 µM (inactive) | COc1cc2ncnc3c2cc1OCCCCCN(C)Cc1ccc(Br)cc1N3 [JNJ-26483327]
> 30 µM (inactive) | > 30 µM (inactive) | > 30 µM (inactive) | > 30 µM (inactive) | > 30 µM (inactive) | > 30 µM (inactive) | > 30 µM (inactive) | Cn1c(=O)c(F)c(Nc2ccc(I)cc2F)c2c(=O)n(C[C@@H](O)CO)cnc21 [TAK-733]
> 30 µM (inactive) | > 30 µM (inactive) | > 30 µM (inactive) | > 30 µM (inactive) | > 30 µM (inactive) | > 30 µM (inactive) | > 30 µM (inactive) | COc1cccc2cc(-c3nc([C@H]4CC[C@H](C(=O)O)CC4)n4ncnc(N)c34)[nH]c12 [OSI-027]
> 30 µM (inactive) | > 30 µM (inactive) | > 30 µM (inactive) | > 30 µM (inactive) | > 30 µM (inactive) | > 30 µM (inactive) | > 30 µM (inactive) | Cc1cc(C(=O)Nc2cc(Oc3ccc4nc(NC(=O)C5CC5)cn4n3)ccc2C)n(C)n1 [TAK-593]

The remaining lines, values behind:

SMILES | Kd [1] | Kd [2] | Kd [3] | Kd [4] | Kd [5] | Kd [6] | Kd [7]
COc1ccc2c(OCc3nnc4ccc(-c5ccccc5)nn34)ccnc2c1 [AMG-208] | > 30 µM (inactive) | > 30 µM (inactive) | > 30 µM (inactive) | > 30 µM (inactive) | > 30 µM (inactive) | > 30 µM (inactive) | > 30 µM (inactive)
CNC(=O)c1cccc(-c2ccc3c(N4CCOC[C@@H]4C)nc(N4CCOC[C@@H]4C)nc3n2)c1 [VISTUSERTIB] | > 30 µM (inactive) | > 30 µM (inactive) | > 30 µM (inactive) | > 30 µM (inactive) | > 30 µM (inactive) | > 30 µM (inactive) | > 30 µM (inactive)
COc1cc2nccc(Oc3ccc(NC(=O)C4(C(=O)Nc5ccc(F)cc5)CC4)cc3)c2cc1OC [CABOZANTINIB] | > 30 µM (inactive) | > 30 µM (inactive) | > 30 µM (inactive) | > 30 µM (inactive) | > 30 µM (inactive) | > 30 µM (inactive) | > 30 µM (inactive)
COc1cccc(Nc2ncnn3ccc(CN4CC[C@@H](N)[C@H](O)C4)c23)c1 [BMS-690514] | > 30 µM (inactive) | > 30 µM (inactive) | > 30 µM (inactive) | > 30 µM (inactive) | > 30 µM (inactive) | > 30 µM (inactive) | > 30 µM (inactive)
CCc1nc(C(N)=O)c(Nc2ccc(N3CCC(N4CCN(C)CC4)CC3)c(OC)c2)nc1NC1CCOCC1 [GILTERITINIB] | > 30 µM (inactive) | 0.039 µM (active) | > 30 µM (inactive) | 0.191 µM (active) | 2.65 µM (active) | > 30 µM (inactive) | > 30 µM (inactive)
COc1cc2ncnc(Nc3ccc(O)cc3)c2cc1OC [WHI-P131] | > 30 µM (inactive) | > 30 µM (inactive) | > 30 µM (inactive) | > 30 µM (inactive) | > 30 µM (inactive) | > 30 µM (inactive) | > 30 µM (inactive)
O[C@H]1CC[C@H](Nc2ncc3nc(Nc4c(F)cc(F)cc4F)n([C@H]4CCOC4)c3n2)CC1 [TANZISERTIB] | > 30 µM (inactive) | > 30 µM (inactive) | > 30 µM (inactive) | > 30 µM (inactive) | > 30 µM (inactive) | > 30 µM (inactive) | > 30 µM (inactive)
Cc1ccc(C(=O)Nc2ccc(Oc3cc4cnn(C)c4cc3-c3cn[nH]c3)c(F)c2)c(=O)n1-c1ccc(F)cc1 [MERESTINIB] | > 30 µM (inactive) | > 30 µM (inactive) | > 30 µM (inactive) | > 30 µM (inactive) | > 30 µM (inactive) | > 30 µM (inactive) | > 30 µM (inactive)
Cn1c(=O)n(-c2ccc(C(C)(C)C#N)cc2)c2c3cc(-c4cnc5ccccc5c4)ccc3ncc21 [DACTOLISIB] | > 30 µM (inactive) | > 30 µM (inactive) | > 30 µM (inactive) | > 30 µM (inactive) | > 30 µM (inactive) | > 30 µM (inactive) | > 30 µM (inactive)
Cc1cc(-c2cc(OC(=O)c3ccccc3)ccc2Cl)cc2nnc(Nc3ccc(OCCN4CCCC4)cc3)nc12 [TG100-801] | > 30 µM (inactive) | > 30 µM (inactive) | 0.703 µM (active) | > 30 µM (inactive) | > 30 µM (inactive) | > 30 µM (inactive) | > 30 µM (inactive)
CNC(=O)c1ccc(Nc2ncc(C(F)(F)F)c(NCc3nccnc3N(C)S(C)(=O)=O)n2)cc1 [DEFACTINIB] | > 30 µM (inactive) | 11.3 µM (active) | > 30 µM (inactive) | > 30 µM (inactive) | > 30 µM (inactive) | > 30 µM (inactive) | > 30 µM (inactive)
CN1CCN(c2nc(C3=C(c4c[nH]c5ccccc45)C(=O)NC3=O)c3ccccc3n2)CC1 [SOTRASTAURIN] | > 30 µM (inactive) | > 30 µM (inactive) | > 30 µM (inactive) | > 30 µM (inactive) | > 30 µM (inactive) | > 30 µM (inactive) | > 30 µM (inactive)
NC(=O)c1ccc(N(C(N)=O)c2c(F)cccc2F)nc1-c1ccc(F)cc1F [VX-702] | > 30 µM (inactive) | > 30 µM (inactive) | > 30 µM (inactive) | > 30 µM (inactive) | > 30 µM (inactive) | > 30 µM (inactive) | > 30 µM (inactive)
c1cc(OCCN2CCCCC2)cc(-c2n[nH]c3ccc(-c4nc[nH]n4)cc23)c1 [CC-401] | > 30 µM (inactive) | > 30 µM (inactive) | > 30 µM (inactive) | > 30 µM (inactive) | > 30 µM (inactive) | > 30 µM (inactive) | > 30 µM (inactive)
